Test results reported in ChEMBL document CHEMBL5291721, “A preclinical secondary pharmacology resource illuminates target-adverse drug reaction associations of marketed drugs” (Nat Commun, 2023).

Legend:
Bile salt export pump = Bile salt export pump (Homo sapiens, UniProt O95342); format: functional
[1] = biological target: T1, Muscarinic acetylcholine receptor M2 (Homo sapiens, UniProt P08172); format: functional, cell-based
T1 sequence (P08172 whole entry): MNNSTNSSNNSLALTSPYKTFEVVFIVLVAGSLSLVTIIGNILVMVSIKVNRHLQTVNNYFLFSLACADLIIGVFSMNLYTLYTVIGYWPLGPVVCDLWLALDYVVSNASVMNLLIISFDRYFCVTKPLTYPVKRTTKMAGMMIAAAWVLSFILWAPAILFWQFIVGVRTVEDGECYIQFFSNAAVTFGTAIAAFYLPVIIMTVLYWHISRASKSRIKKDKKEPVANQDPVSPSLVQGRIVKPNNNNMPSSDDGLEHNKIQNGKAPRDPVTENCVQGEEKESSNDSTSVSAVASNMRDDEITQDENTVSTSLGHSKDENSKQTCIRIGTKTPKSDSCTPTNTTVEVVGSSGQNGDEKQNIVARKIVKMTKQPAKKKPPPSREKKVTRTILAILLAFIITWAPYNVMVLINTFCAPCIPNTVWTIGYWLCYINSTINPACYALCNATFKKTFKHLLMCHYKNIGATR

Adenosine receptor A1 = biological target: T2, Adenosine receptor A1 (Homo sapiens, UniProt P30542)
T2 sequence (P30542 whole entry): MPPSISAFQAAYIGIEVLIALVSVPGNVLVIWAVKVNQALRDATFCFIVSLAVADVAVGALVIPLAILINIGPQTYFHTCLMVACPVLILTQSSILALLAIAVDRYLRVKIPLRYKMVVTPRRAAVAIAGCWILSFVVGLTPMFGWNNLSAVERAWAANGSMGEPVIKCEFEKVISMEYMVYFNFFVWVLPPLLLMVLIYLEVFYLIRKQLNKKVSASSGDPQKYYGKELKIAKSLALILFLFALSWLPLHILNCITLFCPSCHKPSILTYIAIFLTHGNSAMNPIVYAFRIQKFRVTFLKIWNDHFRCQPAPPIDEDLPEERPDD

[2] = biological target: Voltage-gated inwardly rectifying potassium channel KCNH2 (Homo sapiens, UniProt Q12809); format: functional; conditions: read-out: AC50
[3] = biological target: T3, Alpha-2C adrenergic receptor (Homo sapiens, UniProt P18825); format: functional
T3 sequence (P18825 whole entry): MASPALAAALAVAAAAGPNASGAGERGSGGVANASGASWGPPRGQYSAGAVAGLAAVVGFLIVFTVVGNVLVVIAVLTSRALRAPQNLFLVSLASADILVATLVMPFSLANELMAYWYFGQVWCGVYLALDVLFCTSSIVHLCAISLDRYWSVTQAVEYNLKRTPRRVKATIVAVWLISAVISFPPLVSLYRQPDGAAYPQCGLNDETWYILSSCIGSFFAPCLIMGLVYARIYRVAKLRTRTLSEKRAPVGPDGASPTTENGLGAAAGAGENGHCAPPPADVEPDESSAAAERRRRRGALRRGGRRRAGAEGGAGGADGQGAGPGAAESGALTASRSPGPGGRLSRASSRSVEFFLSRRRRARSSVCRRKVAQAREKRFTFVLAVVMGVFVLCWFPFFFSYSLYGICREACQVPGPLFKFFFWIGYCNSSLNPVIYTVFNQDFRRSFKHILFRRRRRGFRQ

[4] = biological target: Sodium-dependent dopamine transporter (Homo sapiens, UniProt Q01959)
[5] = biological target: Gamma-aminobutyric acid receptor subunit alpha-1 (Rattus norvegicus, UniProt P62813); format: functional
[6] = biological target: T4, Alpha-2A adrenergic receptor (Homo sapiens, UniProt P08913); format: functional, cell-based
T4 sequence (P08913 whole entry): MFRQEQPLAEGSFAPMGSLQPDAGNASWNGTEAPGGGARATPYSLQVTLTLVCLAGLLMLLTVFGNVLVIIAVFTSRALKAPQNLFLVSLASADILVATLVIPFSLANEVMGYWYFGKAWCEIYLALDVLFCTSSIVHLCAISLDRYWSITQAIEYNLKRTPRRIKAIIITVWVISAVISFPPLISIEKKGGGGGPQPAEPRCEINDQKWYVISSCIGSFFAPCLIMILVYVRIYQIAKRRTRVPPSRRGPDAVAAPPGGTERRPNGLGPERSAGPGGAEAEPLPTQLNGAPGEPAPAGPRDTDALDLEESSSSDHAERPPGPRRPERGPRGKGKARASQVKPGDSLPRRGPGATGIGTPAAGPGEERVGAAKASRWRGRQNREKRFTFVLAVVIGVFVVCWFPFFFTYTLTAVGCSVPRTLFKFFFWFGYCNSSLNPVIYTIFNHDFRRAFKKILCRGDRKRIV

[7] = biological target: T5, Equilibrative nucleoside transporter 1 (Homo sapiens, UniProt Q99808)
T5 sequence (Q99808 whole entry): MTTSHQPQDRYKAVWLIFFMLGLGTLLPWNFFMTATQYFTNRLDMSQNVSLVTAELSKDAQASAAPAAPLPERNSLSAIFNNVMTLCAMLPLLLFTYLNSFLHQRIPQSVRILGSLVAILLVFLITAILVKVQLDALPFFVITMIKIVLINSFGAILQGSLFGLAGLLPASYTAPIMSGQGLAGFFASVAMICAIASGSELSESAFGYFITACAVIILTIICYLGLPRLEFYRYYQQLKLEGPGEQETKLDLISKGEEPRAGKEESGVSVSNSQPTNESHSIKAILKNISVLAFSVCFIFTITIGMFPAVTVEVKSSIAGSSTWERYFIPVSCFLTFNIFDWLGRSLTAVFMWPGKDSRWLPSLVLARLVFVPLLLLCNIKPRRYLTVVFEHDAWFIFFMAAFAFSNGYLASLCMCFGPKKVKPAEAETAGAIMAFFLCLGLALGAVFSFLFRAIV

Adenosine receptor A2a = Adenosine receptor A2a (Homo sapiens, UniProt P29274)
[8] = biological target: Neuronal acetylcholine receptor subunit alpha-4 (Homo sapiens, UniProt P43681)
Note: assay procedure not described here.

Neuronal acetylcholine receptor subunit alpha-4, sequence (P43681 whole entry): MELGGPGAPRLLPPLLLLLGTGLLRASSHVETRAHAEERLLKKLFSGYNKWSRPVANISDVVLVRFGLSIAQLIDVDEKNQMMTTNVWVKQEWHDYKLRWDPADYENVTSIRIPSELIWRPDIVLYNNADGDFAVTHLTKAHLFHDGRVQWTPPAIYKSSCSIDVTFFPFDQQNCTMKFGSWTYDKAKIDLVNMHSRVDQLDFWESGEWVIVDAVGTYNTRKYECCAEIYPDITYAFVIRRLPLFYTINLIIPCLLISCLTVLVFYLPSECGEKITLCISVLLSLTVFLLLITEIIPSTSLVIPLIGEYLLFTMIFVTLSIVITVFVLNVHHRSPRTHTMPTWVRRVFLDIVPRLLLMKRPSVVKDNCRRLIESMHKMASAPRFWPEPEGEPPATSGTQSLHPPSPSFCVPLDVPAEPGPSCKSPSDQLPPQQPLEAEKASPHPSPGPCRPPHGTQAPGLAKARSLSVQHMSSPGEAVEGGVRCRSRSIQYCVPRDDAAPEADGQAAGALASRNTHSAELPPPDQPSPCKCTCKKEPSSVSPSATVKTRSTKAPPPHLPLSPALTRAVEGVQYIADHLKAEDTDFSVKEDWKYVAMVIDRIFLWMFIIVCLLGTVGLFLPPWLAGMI
Adenosine receptor A2a, sequence (P29274 whole entry): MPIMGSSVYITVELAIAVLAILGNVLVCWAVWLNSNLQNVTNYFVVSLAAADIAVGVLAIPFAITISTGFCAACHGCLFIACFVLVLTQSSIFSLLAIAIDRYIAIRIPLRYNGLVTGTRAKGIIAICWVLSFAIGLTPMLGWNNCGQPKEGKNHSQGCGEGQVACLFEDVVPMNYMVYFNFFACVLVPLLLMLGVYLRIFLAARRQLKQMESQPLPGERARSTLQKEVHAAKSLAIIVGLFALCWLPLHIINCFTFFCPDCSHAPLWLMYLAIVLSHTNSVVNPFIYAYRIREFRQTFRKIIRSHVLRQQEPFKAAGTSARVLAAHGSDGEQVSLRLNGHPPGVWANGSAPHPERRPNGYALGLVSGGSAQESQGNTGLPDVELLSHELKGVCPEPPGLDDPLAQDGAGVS
Bile salt export pump, sequence (O95342 whole entry): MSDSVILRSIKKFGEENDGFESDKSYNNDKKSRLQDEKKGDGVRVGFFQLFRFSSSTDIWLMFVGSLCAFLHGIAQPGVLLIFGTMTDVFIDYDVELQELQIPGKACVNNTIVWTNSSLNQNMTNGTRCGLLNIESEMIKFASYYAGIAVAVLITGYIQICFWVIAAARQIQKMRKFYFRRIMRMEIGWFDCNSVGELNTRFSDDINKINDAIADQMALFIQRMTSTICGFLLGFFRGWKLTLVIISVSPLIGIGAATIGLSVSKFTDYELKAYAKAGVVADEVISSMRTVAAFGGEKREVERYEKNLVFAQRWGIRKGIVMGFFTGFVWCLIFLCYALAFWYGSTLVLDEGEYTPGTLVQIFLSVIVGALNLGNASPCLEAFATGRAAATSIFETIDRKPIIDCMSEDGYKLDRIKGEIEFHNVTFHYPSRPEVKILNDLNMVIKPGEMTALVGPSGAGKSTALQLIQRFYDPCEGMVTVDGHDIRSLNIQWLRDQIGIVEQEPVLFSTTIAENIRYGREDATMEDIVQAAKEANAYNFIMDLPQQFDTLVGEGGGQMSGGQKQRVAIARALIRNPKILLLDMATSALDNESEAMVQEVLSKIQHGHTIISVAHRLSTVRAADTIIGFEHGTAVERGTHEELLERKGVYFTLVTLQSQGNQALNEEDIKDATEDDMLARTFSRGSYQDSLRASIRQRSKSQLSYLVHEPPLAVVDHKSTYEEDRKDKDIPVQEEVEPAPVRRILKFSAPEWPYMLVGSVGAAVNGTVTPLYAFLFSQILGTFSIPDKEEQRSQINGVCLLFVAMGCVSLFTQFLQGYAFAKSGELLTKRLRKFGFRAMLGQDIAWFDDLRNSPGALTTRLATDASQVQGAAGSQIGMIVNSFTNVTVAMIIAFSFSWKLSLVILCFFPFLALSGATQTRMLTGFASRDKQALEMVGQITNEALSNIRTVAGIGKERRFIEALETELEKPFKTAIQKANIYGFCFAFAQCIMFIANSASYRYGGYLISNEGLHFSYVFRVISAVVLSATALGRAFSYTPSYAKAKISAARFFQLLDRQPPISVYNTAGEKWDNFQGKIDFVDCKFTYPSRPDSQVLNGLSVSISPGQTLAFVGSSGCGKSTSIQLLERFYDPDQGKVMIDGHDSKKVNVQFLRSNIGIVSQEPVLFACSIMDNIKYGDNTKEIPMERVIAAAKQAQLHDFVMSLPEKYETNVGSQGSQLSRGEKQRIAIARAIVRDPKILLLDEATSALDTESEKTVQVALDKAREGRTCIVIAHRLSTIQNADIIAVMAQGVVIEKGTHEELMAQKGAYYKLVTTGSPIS
Sodium-dependent dopamine transporter, sequence (Q01959 whole entry): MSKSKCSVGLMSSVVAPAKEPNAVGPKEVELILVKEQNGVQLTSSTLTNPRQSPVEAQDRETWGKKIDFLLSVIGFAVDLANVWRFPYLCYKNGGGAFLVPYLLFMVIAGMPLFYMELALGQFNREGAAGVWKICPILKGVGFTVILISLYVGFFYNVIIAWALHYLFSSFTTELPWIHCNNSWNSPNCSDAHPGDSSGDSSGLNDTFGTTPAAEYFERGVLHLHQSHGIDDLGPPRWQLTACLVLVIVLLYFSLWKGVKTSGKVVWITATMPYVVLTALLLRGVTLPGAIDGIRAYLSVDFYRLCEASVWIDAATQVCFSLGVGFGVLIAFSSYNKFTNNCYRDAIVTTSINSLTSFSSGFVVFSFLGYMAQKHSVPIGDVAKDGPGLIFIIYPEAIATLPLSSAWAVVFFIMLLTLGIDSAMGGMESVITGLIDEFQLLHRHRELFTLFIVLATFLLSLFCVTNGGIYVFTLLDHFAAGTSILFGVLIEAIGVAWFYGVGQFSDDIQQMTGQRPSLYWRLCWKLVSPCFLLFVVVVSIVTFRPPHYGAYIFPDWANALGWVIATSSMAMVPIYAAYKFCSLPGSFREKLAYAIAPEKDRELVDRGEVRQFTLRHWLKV
Voltage-gated inwardly rectifying potassium channel KCNH2, sequence (Q12809 whole entry): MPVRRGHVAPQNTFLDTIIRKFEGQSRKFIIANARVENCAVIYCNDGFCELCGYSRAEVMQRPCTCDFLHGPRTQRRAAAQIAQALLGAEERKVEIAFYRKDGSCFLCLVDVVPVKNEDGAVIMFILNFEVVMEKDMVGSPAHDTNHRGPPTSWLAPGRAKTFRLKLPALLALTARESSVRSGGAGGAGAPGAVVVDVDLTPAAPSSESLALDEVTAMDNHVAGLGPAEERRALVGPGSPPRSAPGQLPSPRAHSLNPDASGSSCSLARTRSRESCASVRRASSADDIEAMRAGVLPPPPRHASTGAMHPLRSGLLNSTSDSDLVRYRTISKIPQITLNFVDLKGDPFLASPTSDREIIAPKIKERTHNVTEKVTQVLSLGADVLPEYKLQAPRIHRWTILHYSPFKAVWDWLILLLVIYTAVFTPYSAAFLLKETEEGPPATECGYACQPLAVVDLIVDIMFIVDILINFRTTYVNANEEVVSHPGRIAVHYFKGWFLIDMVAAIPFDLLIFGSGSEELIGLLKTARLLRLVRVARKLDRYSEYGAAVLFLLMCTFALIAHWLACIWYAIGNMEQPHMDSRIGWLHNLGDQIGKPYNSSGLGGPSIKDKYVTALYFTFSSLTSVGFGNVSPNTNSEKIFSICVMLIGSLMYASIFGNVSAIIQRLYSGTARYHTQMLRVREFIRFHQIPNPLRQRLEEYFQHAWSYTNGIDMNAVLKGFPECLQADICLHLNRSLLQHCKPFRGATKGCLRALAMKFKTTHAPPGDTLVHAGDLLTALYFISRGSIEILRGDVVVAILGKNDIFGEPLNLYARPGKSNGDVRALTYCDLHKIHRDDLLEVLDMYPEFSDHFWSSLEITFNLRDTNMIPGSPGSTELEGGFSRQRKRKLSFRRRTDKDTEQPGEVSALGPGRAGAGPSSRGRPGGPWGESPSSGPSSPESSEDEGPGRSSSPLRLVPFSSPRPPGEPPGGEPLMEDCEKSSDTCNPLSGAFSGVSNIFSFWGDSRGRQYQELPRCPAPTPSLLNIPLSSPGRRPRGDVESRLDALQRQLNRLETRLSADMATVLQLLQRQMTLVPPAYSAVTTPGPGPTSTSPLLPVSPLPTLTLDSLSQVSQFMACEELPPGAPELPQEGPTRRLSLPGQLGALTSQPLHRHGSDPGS
Gamma-aminobutyric acid receptor subunit alpha-1, sequence (P62813 whole entry): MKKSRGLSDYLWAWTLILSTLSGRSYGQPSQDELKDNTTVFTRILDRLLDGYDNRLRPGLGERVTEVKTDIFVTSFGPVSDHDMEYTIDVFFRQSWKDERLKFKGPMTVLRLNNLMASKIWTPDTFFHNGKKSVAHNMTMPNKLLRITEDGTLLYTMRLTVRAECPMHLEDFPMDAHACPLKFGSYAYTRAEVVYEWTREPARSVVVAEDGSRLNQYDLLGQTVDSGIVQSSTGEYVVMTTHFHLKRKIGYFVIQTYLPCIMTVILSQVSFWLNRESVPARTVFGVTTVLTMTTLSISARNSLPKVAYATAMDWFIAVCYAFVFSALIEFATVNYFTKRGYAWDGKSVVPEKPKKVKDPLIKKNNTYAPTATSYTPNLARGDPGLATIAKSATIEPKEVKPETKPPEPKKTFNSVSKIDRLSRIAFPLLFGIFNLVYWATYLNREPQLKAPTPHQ

SMILES | AC50 (Bile salt export pump) [µM] | AC50 [1] [µM] | AC50 (Adenosine receptor A1) [µM] | AC50 [2] [µM] | AC50 [3] [µM] | AC50 [4] [µM] | AC50 [5] [µM] | AC50 [6] [µM] | AC50 [7] [µM] | AC50 (Adenosine receptor A2a) [µM] | AC50 [8] [µM]
NC(=O)c1ncn([C@@H]2O[C@H](CO)[C@@H](O)[C@H]2O)c1O [MIZORIBINE] | > 300 | > 30 | > 30 | > 30 | > 30 | > 30 | > 10 | > 30 | > 30 | > 30 | > 30
NC1=NC(=O)C(c2ccccc2)O1 (stereo unspecified) [PEMOLINE] | > 300 | > 10 | > 30 | > 30 | > 10 | 3.46 | > 10 | > 10 | > 30 | > 30 | > 10
CC(C(=O)O)c1ccc(N2CC=CC2)c(Cl)c1 (stereo unspecified) [PIRPROFEN] | 270 | > 10 | > 30 | > 30 | > 10 | > 10 | > 10 | > 10 | > 30 | > 30 | > 10
CC[C@H](C)C(=O)O[C@H]1C[C@H](O)C=C2C=C[C@H](C)[C@H](CC[C@@H](O)C[C@@H](O)CC(=O)O)[C@H]21 [PRAVASTATIN] | > 100 | > 30 | > 30 | > 30 | > 30 | > 30 | > 30 | > 30 | > 30 | > 30 | > 30
NC(=O)c1cnccn1 [PYRAZINAMIDE] | > 300 | > 30 | > 30 | > 30 | > 30 | > 30 | > 30 | > 30 | > 30 | > 30 | > 30
CNC(=O)c1cc(Oc2ccc(NC(=O)Nc3ccc(Cl)c(C(F)(F)F)c3)cc2)ccn1 [SORAFENIB] | 2 | > 30 | > 30 | > 30 | > 30 | 6.85 | > 30 | > 30 | > 30 | > 30 | > 30
CC(C(=O)O)c1ccc(C(=O)c2cccs2)cc1 (stereo unspecified) [SUPROFEN] | > 300 | > 10 | > 10 | > 30 | > 10 | > 10 | > 10 | > 10 | > 10 | > 10 | > 10
CS(=O)(=O)c1ccc([C@@H](O)[C@@H](CO)NC(=O)C(Cl)Cl)cc1 [THIAMPHENICOL] | > 300 | > 30 | > 30 | > 30 | > 30 | > 30 | > 30 | > 30 | > 30 | > 30 | > 30
Cc1ccc(C(=O)c2cc(O)c(O)c([N+](=O)[O-])c2)cc1 [TOLCAPONE] | 30.3 | > 10 | 15.6 | 1.95 | > 10 | 1.1 | > 10 | > 10 | > 30 | > 30 | > 10
NC[C@H]1CC[C@H](C(=O)O)CC1 [TRANEXAMIC ACID] | > 300 | > 10 | > 10 | > 30 | > 10 | > 10 | > 10 | > 10 | > 10 | > 10 | > 10
CCCS(=O)(=O)Nc1ccc(F)c(C(=O)c2c[nH]c3ncc(-c4ccc(Cl)cc4)cc23)c1F [VEMURAFENIB] | 37 | > 30 | > 30 | > 30 | > 30 | > 30 | > 30 | > 30 | > 30 | > 30 | > 30
